In patent publication US11226337B2, “Chemoproteomic profiling of protein electrophilic and oxidative post-translational modifications” (Zenagem, LLC, priority 2017, dated 2022):

What was measured:
Assay in all cases: SILAC RP-ABPP
Type in all cases: cell-based
[1] = target: T1, PLOD3 Procollagenlysine, 2oxoglutarate (O60568) (Homo sapiens, UniProt O60568); details: SILAC H/L
T1 construct: In Situ Labelling of Cells with Hydrazine Probes for MS Experiments; endogenous in cells; host or cells: HEK293T and MDA-MB-231
T1 sequence (O60568 25-738): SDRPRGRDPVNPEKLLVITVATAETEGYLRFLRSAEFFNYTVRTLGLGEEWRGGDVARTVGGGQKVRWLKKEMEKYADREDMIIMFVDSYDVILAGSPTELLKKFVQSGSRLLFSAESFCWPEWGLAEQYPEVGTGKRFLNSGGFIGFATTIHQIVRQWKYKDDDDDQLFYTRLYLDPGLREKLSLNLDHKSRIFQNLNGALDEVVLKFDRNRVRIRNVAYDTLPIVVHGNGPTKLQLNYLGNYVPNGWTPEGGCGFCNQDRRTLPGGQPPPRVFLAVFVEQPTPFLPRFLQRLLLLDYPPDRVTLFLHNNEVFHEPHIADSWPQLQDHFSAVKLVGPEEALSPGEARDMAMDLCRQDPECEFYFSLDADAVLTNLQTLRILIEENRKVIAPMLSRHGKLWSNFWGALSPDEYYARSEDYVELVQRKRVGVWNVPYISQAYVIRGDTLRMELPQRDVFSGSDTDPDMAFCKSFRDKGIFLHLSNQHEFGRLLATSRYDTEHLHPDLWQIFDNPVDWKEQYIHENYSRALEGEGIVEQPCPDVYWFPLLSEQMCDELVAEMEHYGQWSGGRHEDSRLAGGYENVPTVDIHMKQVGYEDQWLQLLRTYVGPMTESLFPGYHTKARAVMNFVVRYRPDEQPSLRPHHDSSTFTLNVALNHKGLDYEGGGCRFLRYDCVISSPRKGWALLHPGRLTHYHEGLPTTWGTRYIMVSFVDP

[2] = target: T2, ALDOA Fructosebisphosphate aldolase A (P04075) (Homo sapiens, UniProt P04075); details: SILAC H/L, HEK293T
T2 construct: shared by both the endogenous and recombinant forms of these proteins; endogenous in cells; host or cells: HEK293T and MDA-MB-231
T2 sequence (P04075 1-364): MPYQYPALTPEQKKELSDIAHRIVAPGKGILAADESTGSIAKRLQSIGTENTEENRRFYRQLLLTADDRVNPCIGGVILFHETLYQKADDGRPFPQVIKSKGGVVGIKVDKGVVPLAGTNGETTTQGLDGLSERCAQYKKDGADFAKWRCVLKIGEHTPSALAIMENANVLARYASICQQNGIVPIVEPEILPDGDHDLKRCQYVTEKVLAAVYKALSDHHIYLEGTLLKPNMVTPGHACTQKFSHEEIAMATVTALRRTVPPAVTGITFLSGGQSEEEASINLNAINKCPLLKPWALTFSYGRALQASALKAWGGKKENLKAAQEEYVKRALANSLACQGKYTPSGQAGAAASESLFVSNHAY

[3] = target: T3, CTSB Cathepsin B (P07858) (Homo sapiens, UniProt P07858); details: SILAC H/L, MDA-MB-231
T3 construct: In Situ Labelling of Cells with Hydrazine Probes for MS Experiments; endogenous in cells; host or cells: HEK293T and MDA-MB-231

SMILES	enrichment ratioavg ([1]; probe 1 3 mM 0.5 h vs probe 3, MDA-MB-231)	competition ratioavg ([1]; probe 1 vs probe 1+10x probe 3, MDA-MB-231)	enrichment ratioavg ([2]; probe 1 3 mM 0.5 h vs probe 3)	competition ratioavg ([2]; probe 1 vs probe 1+10x probe 3)	enrichment ratioavg ([3]; probe 1 3 mM 0.5 h vs probe 3)	competition ratioavg ([3]; probe 1 vs probe 1+10x probe 3)	enrichment ratioavg ([1]; probe 2 1 mM 0.5 h vs probe 4, HEK293T)	competition ratioavg ([1]; probe 2 vs probe 2+10x probe 4, HEK293T)	enrichment ratioavg ([2]; probe 2 1 mM 0.5 h vs probe 4)	competition ratioavg ([2]; probe 2 vs probe 2+10x probe 4)	enrichment ratioavg ([3]; probe 2 1 mM 0.5 h vs probe 4)	competition ratioavg ([3]; probe 2 vs probe 2+10x probe 4)
C#CCNN.Cl [probe 1, prop-2-yn-1-ylhydrazine hydrochloride]	14	2	16	3	9	3	–	–	–	–	–	–
C#CCCNC(=O)c1ccc(NN)cc1.Cl [probe 2, N-(but-3-yn-1-yl)-4-hydrazinylbenzamide hydrochloride]	–	–	–	–	–	–	20	6	12	5	14	5
